In patent publication US20240116923A1, “USE OF INDOLE, 6- AND 7-AZAINDOLE DERIVATIVES AS INHIBITORS OF FERROPTOSIS REGULATED CELL DEATH” (Seabelife, priority 2021, published 2024) one finds EC50 data, which are given here for 26 molecules.

Read-outs that look alike come from different tables or passages of the source. A value given as a limit tells only on which side of the number the result lay.

Experiment [1] relates to mouse hippocampal neuronal cell line HT22. The experiment in a line: Neurotoxicity and excitotoxicity assay, HT22 cells + glutamate, erastin or RSL3, MTS cell viability. It counts as cell-based. The settings on record: Mus musculus. The procedure:
(§1) The excitotoxicity model used was the mouse hippocampal neuronal HT22 cells treated with glutamate [Dixon et al., Cell, 2012, 149(5), 1060-1072]. Ferroptosis and oxidative stress are both associated in this glutamate-induced cell death [Chu et al., Neural Regen. Res., 2020, 15(3), 528-536]. Phenotypic screening was also carried out with additional cell death inducers, erastin and RSL3 ((1S,3R)-Ras-selective lethal), in HT22 and SH-SY5Y (human neuroblastoma cells). Erastin and RSL3 are well described molecules, used as chemical tools for the study of ferroptosis regulation and neuronal pathologies [Lewerenz et al., Front. Neurosci., 2018, 12: 214; Reichert et al., Int. J. Mol. Sci., 2020, 21, 8765].
(§2) Mouse hippocampal neuronal cell line (HT22, ATCC) and human neuroblastoma cell line (SH-SY5Y, ATCC) were grown in Dulbecco's Modified Eagle Medium (DMEM, Gibco) supplemented with 10% fetal bovine serum (FBS, Gibco) at 37° C. under 5% CO2 atmosphere. Neurotoxicity was induced by erastin or RSL3 and excitotoxicity was induced by glutamate. Cells were seeded in 96-well plates at 5,000 and 10,000 cells/well for HT22 and SH-SY5Y cell lines, respectively. Cells were treated with 0.5-1 μM Erastin (HT22 cells) or 10 μM Erastin (SH-SY5Y cells) or 5-10 mM glutamate (HT22 cells) or 0.5 μM RSL3 (HT22 cells) or 5 μM RSL3 (SH-SY5Y cells) for 24 h in presence of increasing concentrations of inhibitors. Cells treated with DMSO only were used as controls. Cell viability was assessed by MTS assay (CellTiter 96 AQueous One Solution Cell Proliferation assay, Promega).
(§3) In FIGS. 1, 2A and 2B, an inhibitor was added to HT22 (FIG. 1: compound 6) or SH-SY5Y (FIG. 2A: compound 6; FIG. 2B: compound 25) cells in the presence or not of cell death inducers (erastin, glutamate or RSL3). […] EC50 values for compounds 1-28 were calculated from dose-response curves using Graphpad Prism software.

For experiment [2], the system named is human neuroblastoma cell line SH-SY5Y. The experiment in a line: Neurotoxicity assay, SH-SY5Y cells + erastin or RSL3, MTS cell viability. It counts as cell-based. The note with it: Homo sapiens. Here is the method:
as §1, §2, §3

Setting [3] is: HT-22, HT22 cells, 0.5 μM RSL3, 24 h, MTS, read-out: EC50 HT22 RSL3.
Setting [4] is: HT-22, HT22 cells, 0.5-1 μM Erastin, 24 h, MTS, read-out: EC50 HT22 Erastin.
Setting [5] is: SH-SY5Y cells, 5 μM RSL3, 24 h, MTS, read-out: EC50 SH-SY5Y RSL3.
Setting [6] is: SH-SY5Y cells, 10 μM Erastin, 24 h, MTS, read-out: EC50 SH-SY5Y Erastin.
Where [7] appears, read: HT-22, HT22 cells, 5-10 mM glutamate, 24 h, MTS, read-out: EC50 HT22 Glutamate.
Setting [8] is: HT-22, 24 h, read-out: EC50 HT22 Erastin.
Setting [9] is: HT-22, 24 h, read-out: EC50 HT22 Glutamate.
Setting [10] is: HT-22, 24 h, read-out: EC50 HT22 RSL3.
Setting [11] is: SH-SY5Y, 24 h, read-out: EC50 SH-SY5Y Erastin.
The mark [12] stands for this setting: SH-SY5Y, 24 h, read-out: EC50 SH-SY5Y RSL3.

With `CCOc1ccc(-c2cc3ccc(C#N)nc3[nH]2)cc1` [Compound 35, 2-(4-ethoxyphenyl)-1H-pyrrolo[2,3-b]pyridine-6-carbonitrile], the EC50 (as a rule, the concentration needed to bring the measured effect to its halfway point) in experiment [1] (setting [3]) worked out at 5.4 µM; in experiment [1] (setting [4]) it was 17 µM; in experiment [2] (setting [5]) it was 1.03 µM; in experiment [2] (setting [6]), 5.95 µM.
For `CCOc1ccc(-c2cc3c(N4CCN(C)CC4)ccnc3[nH]2)cc1` [Compound 15, 2-(4-ethoxyphenyl)-4-(4-methylpiperazin-1-yl)-1H-pyrrolo[2,3-b]pyridine], the EC50 in experiment [1] (setting [3]) came out at 7.19 µM; in experiment [1] (setting [4]), 1.54 µM; in experiment [1] (setting [7]), 0.5 µM; in experiment [2] (setting [6]) it was 2.45 µM.
In the case of `CCOc1ccc(-c2cc3cccn(C(=O)N(C(C)C)C(C)C)c-3n2)cc1` [Compound 24, 2-(4-ethoxyphenyl)-N,N-diisopropyl-7H-pyrrolo[2,3-b]pyridine-7-carboxamide], the EC50 in experiment [1] (setting [8]) is > 50 µM; in experiment [1] (setting [9]) it was > 50 µM; in experiment [1] (setting [10]) it was 21 µM; in experiment [2] (setting [11]), 11 µM; in experiment [2] (setting [12]), 3.43 µM.
Turning to `CC(CO)(CO)C(=O)Oc1ccc(-c2cc3cccnc3[nH]2)cc1` [Compound 10, 4-(1H-pyrrolo[2,3-b]pyridin-2-yl)phenyl 3-hydroxy-2-(hydroxymethyl)-2-methylpropanoate], the EC50 in experiment [1] (setting [3]) was > 50 µM; in experiment [1] (setting [4]) it was > 25 µM; in experiment [1] (setting [7]), > 25 µM; in experiment [2] (setting [6]), 13.7 µM.
As for `CCOc1ccc(-c2[nH]c3ncccc3c2I)cc1` [Compound 17, 2-(4-ethoxyphenyl)-3-iodo-1H-pyrrolo[2,3-b]pyridine], in experiment [2] (setting [6]), the EC50 is > 50 µM.
`CCOc1ccc(-c2cc3c(NCc4ccccc4)ccnc3[nH]2)cc1` [Compound 12, N-benzyl-2-(4-ethoxyphenyl)-1H-pyrrolo[2,3-b]pyridin-4-amine]: the EC50 in experiment [1] (setting [3]) amounted to 0.94 µM; in experiment [1] (setting [4]), 0.91 µM; in experiment [1] (setting [7]) it was 0.5 µM; in experiment [2] (setting [6]), 0.43 µM.
In the case of `Oc1ccc2[nH]c(-c3ccc(OCc4ccccc4)cc3)cc2c1` [Compound 32, 2-(4-(benzyloxy)phenyl)-1H-indol-5-ol], the 50% effective concentration (EC50) was found to be 1 µM in experiment [1] (setting [3]) and 2 µM in experiment [1] (setting [4]).
`CCOc1ccc(-c2cc3ccc(OC(C)=O)nc3n2C(C)=O)cc1` [Compound 22, 1-acetyl-2-(4-ethoxyphenyl)-1H-pyrrolo[2,3-b]pyridin-6-yl acetate]: the EC50 in experiment [1] (setting [3]) was determined as 9.09 µM; in experiment [1] (setting [4]), 5.53 µM; in experiment [1] (setting [7]), 5.31 µM; in experiment [2] (setting [5]), 0.79 µM; in experiment [2] (setting [6]), 1.16 µM.
With `COc1ccc(-c2ccc3cc(-c4ccc(O)cc4)[nH]c3n2)cn1` [Compound 39, 4-(6-(6-methoxypyridin-3-yl)-1H-pyrrolo[2,3-b]pyridin-2-yl)phenol], the EC50 was 16.1 µM in experiment [1] (setting [3]), 16.1 µM in experiment [1] (setting [4]), 1.47 µM in experiment [2] (setting [5]) and 5.83 µM in experiment [2] (setting [6]).
`COc1ccc(-c2cc3ccccc3[nH]2)cc1` [Compound 2, 2-(4-methoxyphenyl)-1H-indole]: the EC50 in experiment [1] (setting [8]) was determined as 7.92 µM; in experiment [1] (setting [9]), 2.66 µM; in experiment [1] (setting [10]) it was 46 µM; in experiment [2] (setting [11]) it was 2.9 µM; in experiment [2] (setting [12]) it was 7.43 µM.
Consider `CCOc1ccc(-c2cc3cccnc3n2CCN2CCOCC2)cc1` [Compound 20, 4-(2-(2-(4-ethoxyphenyl)-1H-pyrrolo[2,3-b]pyridin-1-yl)ethyl)morpholine], for which the EC50 in experiment [1] (setting [3]) stood at 16.7 µM; in experiment [1] (setting [4]), 5.14 µM; in experiment [1] (setting [7]), 11.1 µM; in experiment [2] (setting [5]), 27.4 µM; in experiment [2] (setting [6]) it was 21.4 µM.
Turning to `CCOc1ccc(-c2cc3c(Nc4ccc(C(=O)c5ccccc5)cc4)ccnc3[nH]2)cc1` [Compound 11, (4-((2-(4-ethoxyphenyl)-1H-pyrrolo[2,3-b]pyridin-4-yl)amino)phenyl)(phenyl)methanone], the EC50 in experiment [1] (setting [3]) was found to be 1.16 µM; in experiment [1] (setting [4]), 0.32 µM; in experiment [1] (setting [7]) it was 0.14 µM; in experiment [2] (setting [6]), 0.15 µM.
In the case of `Oc1ccc(-c2cc3ccc(-c4ccc(O)nc4)nc3[nH]2)cc1` [Compound 40, 5-(2-(4-hydroxyphenyl)-1H-pyrrolo[2,3-b]pyridin-6-yl)pyridin-2-ol], the concentration for a half-maximal effect (EC50) in experiment [1] (setting [3]) amounted to 4.98 µM; in experiment [1] (setting [4]) it was 13.3 µM; in experiment [2] (setting [5]) it was 0.95 µM; in experiment [2] (setting [6]), 5.06 µM.
As for `COc1ccc(-c2cc3ccccc3n2O)cc1` [Compound 3, 2-(4-methoxyphenyl)-1H-indol-1-ol], the EC50 in experiment [1] (setting [3]) was 0.32 µM; in experiment [1] (setting [4]), 0.92 µM; in experiment [1] (setting [7]), 1.13 µM.
Turning to `CCOc1ccc(-c2[nH]c3ncccc3c2CN2CCN(C)CC2)cc1` [Compound 16, 2-(4-ethoxyphenyl)-3-((4-methylpiperazin-1-yl)methyl)-1H-pyrrolo[2,3-b]pyridine], the EC50 in experiment [2] (setting [6]) was > 50 µM.
For the molecule `CCOc1ccc(-c2cc3c(Cl)ccnc3n2C(=O)OC(C)(C)C)cc1` [Compound 21, tert-butyl 4-chloro-2-(4-ethoxyphenyl)-1H-pyrrolo[2,3-b]pyridine-1-carboxylate], the EC50 in experiment [1] (setting [4]), in experiment [1] (setting [7]) and in experiment [2] (setting [6]) was > 25 µM throughout.
For the molecule `CCOc1ccc(-c2cc3c(N4CCCCC4)ccnc3[nH]2)cc1` [Compound 13, 2-(4-ethoxyphenyl)-4-(piperidin-1-yl)-1H-pyrrolo[2,3-b]pyridine], the EC50 is 44.1 µM in experiment [1] (setting [3]); 3.62 µM in experiment [1] (setting [4]); 0.92 µM in experiment [1] (setting [7]); 9.25 µM in experiment [2] (setting [5]); 1.11 µM in experiment [2] (setting [6]).
For `CCOc1ccc(-c2cc3c(N(C)c4ccccc4)ccnc3[nH]2)cc1` [Compound 44, 2-(4-ethoxyphenyl)-N-methyl-N-phenyl-1H-pyrrolo[2,3-b]pyridin-4-amine], the EC50 in experiment [1] (setting [3]) came out at 7.12 µM; in experiment [1] (setting [4]), 0.43 µM; in experiment [2] (setting [5]) it was 2.66 µM; in experiment [2] (setting [6]) it was 4.43 µM.
In the case of `CCOc1ccc(-c2cc3ccncc3[nH]2)cc1` [Compound 4, 2-(4-ethoxyphenyl)-1H-pyrrolo[2,3-c]pyridine], the EC50 in experiment [1] (setting [3]) is 27.8 µM; in experiment [1] (setting [4]), > 25 µM; in experiment [1] (setting [7]) it was > 25 µM; in experiment [2] (setting [5]), 5.42 µM; in experiment [2] (setting [6]), 7.66 µM.
As to `CCOc1ccc(-c2cc3ccncc3n2O)cc1` [Compound 5, 2-(4-ethoxyphenyl)-1Hpyrrolo[2,3-c]pyridin-1-ol], the EC50 in experiment [1] (setting [3]) turned out to be 2.79 µM; in experiment [1] (setting [4]), 3.23 µM; in experiment [1] (setting [7]) it was 3.6 µM; in experiment [2] (setting [6]), 0.52 µM.
For `CCOc1ccc(-c2cc3cccnc3n2-c2ccc([N+](=O)[O-])cn2)cc1` [Compound 19, 2-(4-ethoxyphenyl)-1-(5-nitropyridin-2-yl)-1H-pyrrolo[2,3-b]pyridine], the EC50 is 22.1 µM in experiment [1] (setting [3]); 23.3 µM in experiment [1] (setting [4]); 12.8 µM in experiment [1] (setting [7]); 5.6 µM in experiment [2] (setting [5]); 14.3 µM in experiment [2] (setting [6]).
For `NCC(=O)Oc1ccc(-c2cc3cccnc3[nH]2)cc1` [Compound 8, 4-(1H-pyrrolo[2,3-b]pyridin-2-yl)phenyl glycinate], the 50% effective concentration (EC50) in experiment [1] (setting [8]) is > 25 µM; in experiment [1] (setting [9]), > 25 µM; in experiment [1] (setting [10]), > 50 µM; in experiment [2] (setting [11]), 21.5 µM; in experiment [2] (setting [12]) it was 5.98 µM.
`c1ccc(COc2ccc(-c3cc4ccccc4[nH]3)cc2)cc1` [Compound 31, 2-(4-(benzyloxy)phenyl)-1H-indole]: the EC50 in experiment [1] (setting [8]) was > 25 µM; in experiment [1] (setting [10]), > 15 µM.
As to `CCOc1ccc(-c2[nH]c3ncccc3c2C(O)C(F)(F)F)cc1` (stereo not shown) [Compound 18, 1-(2-(4-ethoxyphenyl)-1H-pyrrolo[2,3-b]pyridin-3-yl)-2,2,2-trifluoroethan-1-ol], the EC50 in experiment [2] (setting [6]) is > 50 µM.
In the case of `Cn1c(-c2ccc(O)cc2)cc2ccccc21` [Compound 33, 4-(1-methyl-1H-indol-2-yl)phenol], the EC50 in experiment [1] (setting [3]) was found to be 10.8 µM; in experiment [1] (setting [4]) it was 32 µM; in experiment [1] (setting [7]) it was 16 µM.
As to `Oc1ccc(-c2cc3cc(Br)ccc3[nH]2)cc1` [Compound 30, 4-(5-bromo-TH-indol-2-yl)phenol], the EC50 in experiment [1] (setting [8]) and in experiment [1] (setting [10]) was 7.5 µM in each case.
